Like-named read-outs stand apart in the source and are kept apart here.
Assays:
[1] = test system: OVCAR-3; assay: Sytox screen, tumor cell line panel; format: cell-based; settings: Homo sapiens, Ovarian, K-ras amplification, read-out: IC 50, OVCAR-3
[2] = test system: MIA-PaCa-2; assay: Sytox screen, tumor cell line panel; format: cell-based; settings: Homo sapiens, Pancreatic, K-ras mutant (G12C), read-out: IC 50, MIA-PaCa-2
[3] = test system: SK-OV-3; assay: Sytox screen, tumor cell line panel; format: cell-based; settings: Homo sapiens, Ovarian, read-out: IC 50, SK-OV-3
[4] = test system: MCF7; assay: Sytox screen, tumor cell line panel; format: cell-based; settings: Homo sapiens, Breast, activated pathway, read-out: IC 50, MCF7
[5] = test system: BJELR; assay: Sytox primary screen; format: cell-based; settings: Homo sapiens
Description: The Sytox primary screen is a phenotypic assay which monitors alterations in cell survival-proliferation as a result of compound treatment. It was devised as high throughput method to identify compounds which specifically alter the growth potential of cells harboring the causative mutations found in cancer patients while not affecting the growth of normal cells.
The assay relies upon an inexpensive, simple and reliable readout of a membrane impermeable fluorescent dye (Sytox, from Molecular Probes) which binds to nucleic acid. In healthy cells, no signal is detected because the cell's membrane is intact and the dye will not enter. However, if a cell's membrane is compromised as a result of apoptosis or necrosis, a fluorescent signal proportional to the number of similarly affected cells will be detected. By utilizing a two-step readout (final read in the presence of detergent to permit labeling of all cells), the assay can identify compounds which produce cytostasis, cytotoxicity and/or mitogenesis. The first read or “dead cell” read provides an estimate of the toxicity of a given compound by indicating the number of dead or dying cells in the culture at the time of assay. The second read or “total cell” read captures both the cumulative effects of cytoxicity in reducing the size of the cell population as well as any cytostatic or anti-proliferative effects a test compound may exert on the cells in the test population in the absence of toxicity.
For the purpose of screening, the previously described BJ-TERT line was defined as the “normal” reference cell line and BJ-TERT/LT/ST/RAS^V12 cells were the tumorigenic cell line. Cells were seeded overnight in 96 well plates at densities which without treatment would permit 95% confluence in the wells 72 H later. The following day, the cells were exposed to test compounds in a dilution series for a period of 48 hours. Following this incubation period, the Sytox reagent was added to the cultures at the manufacturer's recommended concentration and the dead cell fluorescence read was taken. After completion of this measurement, the detergent Saponin was added to each well of the cultures to permeabilize the membranes allowing the Sytox reagent to enter every cell thereby, facilitating measurement of the total number of cells remaining in the culture.

[6] = test system: SK-MEL-5; assay: Sytox screen, tumor cell line panel; format: cell-based; settings: Homo sapiens, Melanoma, B-raf V600E mut heterozygote, read-out: IC 50, SK-MEL-5
[7] = test system: DU-145; assay: Sytox screen, tumor cell line panel; format: cell-based; settings: Homo sapiens, Prostate, Wt ras, read-out: IC 50, DU-145
[8] = test system: HOP-92; assay: Sytox screen, tumor cell line panel; format: cell-based; settings: Homo sapiens, Non-Small Cell Lung, Wt ras, read-out: IC 50, HOP-92
[9] = test system: HT-1080 xenografts; assay: HT-1080 tumor treatment study; format: in vivo, mouse; settings: nude Balb/c mice; 100 or 50 mg/Kg, QD×5 days, IP
Procedure: Nude Balb/c (Nu/Nu strain, Charles River Laboratories), female, 5-6 week. old (˜20 g average body weight).
Both compounds were formulated in an identical manner. For the 100 mg/kg dose level, each compound was delivered at a concentration of 10.0 mg/ml, in an injection volume of 0.2 ml. For the 50 mg/kg dose level, each compound was delivered at a concentration of 5.0 mg/ml, in an injection volume of 0.2 ml. For both dose levels, the vehicle contained 0.025% Tween-80, 0.01% benzyl alcohol, 35 mM acetic acid (HOAc), 100 mM potassium phosphate buffer, and 32 mM sucrose, pH=6.5.
Beginning when the mean tumor volume reached ˜200 mm^3, and continuing through day 5, every day, each animal was administered a single IP injection of one of the above treatments, for a total of 5 doses.
Each of 70 mice was implanted with 1×10^7 HT-1080 cells by SC injection of 0.1 cc of inoculum into the right hind flank. A 25 G×⅝″ needle size was used. […]
Starting on Day 1, all animals were weighed, and tumor dimensions (length (L) and width (W)) were measured, every other day. […]
The resulting tumor volume values were averaged for each study group for each time point, and were then plotted against time. Variance was expressed as standard error of the mean (±SEM).

[10] = test system: PANC-1; assay: Sytox screen, tumor cell line panel; format: cell-based; settings: Homo sapiens, Pancreatic, K-ras V12 mutant, read-out: IC 50, PANC-1
[11] = test system: HCT116; assay: Sytox screen, tumor cell line panel; format: cell-based; settings: Homo sapiens, HCT-116; Colon; K-ras G12D; read-out: IC 50, HCT116
[12] = test system: HT1080; assay: Sytox screen, tumor cell line panel; format: cell-based; settings: Homo sapiens, HT-1080; fibrosarcoma; n-ras mutation; read-out: IC 50, HT1080
[13] = test system: SK-MEL-28; assay: Sytox screen, tumor cell line panel; format: cell-based; settings: Homo sapiens, Melanoma, B-raf V600E mut, ras wt, read-out: IC 50, SK-MEL-28
[14] = test system: DLD-1; assay: Sytox screen, tumor cell line panel; format: cell-based; settings: Homo sapiens, Colon, K-ras G13D mutation, wt B-raf, read-out: IC 50, DLD-1
[15] = test system: OVCAR-5; assay: Sytox screen, tumor cell line panel; format: cell-based; settings: Homo sapiens, Ovarian, K-ras G12V, read-out: IC 50, OVCAR-5
[16] = test system: BT-549; assay: Sytox screen, tumor cell line panel; format: cell-based; settings: Homo sapiens, Breast, activated pathway, read-out: IC 50, BT-549
[17] = test system: PC-3; assay: Sytox screen, tumor cell line panel; format: cell-based; settings: Homo sapiens, Prostate, read-out: IC 50, PC-3
[18] = test system: HOP-62; assay: Sytox screen, tumor cell line panel; format: cell-based; settings: Homo sapiens, Non-Small Cell Lung, K-ras G12V, read-out: IC 50, HOP-62
[19] = test system: PANC-1 xenografts; assay: PANC-1 tumor treatment study; format: in vivo; settings: immunodeficient nude mouse; once a day for five consecutive days
Procedure: The experimental plan for the PANC-1 study was essentially identical to that of the HT-1080 study outlined above in Example 10 with the following exceptions: approximately 30-40 mg fragment of passaged PANC-1 tumor tissue was implanted subcutaneously in the right flank of an immunodeficient nude mouse. Tumor growth was monitored daily and when the tumors reached approximately 100 mm^3, animals harboring similarly sized tumors were group matched and compound dosing was initiated. Administration of compound 5 occurred once a day for five consecutive days at the doses listed below. In the PANC-1 xenografts, gemcitabine, administered at the maximum tolerated dose for the model, was used as a control. The gemcitabine regimen was 180 mg/kg […] on every third day over a period of 9 days.

[20] = test system: MALME-3M; assay: Sytox screen, tumor cell line panel; format: cell-based; settings: Homo sapiens, Melanoma, B-raf V600E mut, ras wt, read-out: IC 50, MALME-3M

CCOc1ccccc1-n1c(CN2CCNCC2)nc2ccccc2c1=O [Compound 5, 3-(2-ethoxyphenyl)-2-(piperazin-1-ylmethyl)quinazolin-4(3H)-one]
IC50 [1]: ≥ 100 nM | IC50 [2]: ≥ 1000 nM | IC50 [3]: ≥ 100 nM | IC50 [4]: ≥ 1000 nM | IC50 ([5]; Sytox screen, 48 hours, read-out: IC50 in BJELR): < 100 nM | IC50 ([5]; fibroblast, primary, ras V12 mutation, read-out: IC 50, BJELR): < 100 nM | IC50 [6]: ≥ 100 nM | IC50 [7]: ≥ 100 nM | IC50 [8]: ≥ 1000 nM | antitumor activity in HT-1080 xenografts [9]: robust tumor regression | IC50 [10]: < 100 nM | IC50 [11]: ≥ 100 nM | IC50 [12]: < 100 nM | IC50 [13]: ≥ 100 nM | IC50 [14]: ≥ 100 nM | IC50 [15]: < 100 nM | IC50 [16]: ≥ 100 nM | IC50 [17]: ≥ 1000 nM | IC50 [18]: ≥ 100 nM | antitumor activity in PANC-1 xenografts [19]: tumor regression | IC50 [20]: ≥ 100 nM

— patent publication US20070161644A1, “Erastin analogs and uses thereof” (priority 2005, published 2007)
